{"source": "patent US6436921B1", "about": "“Carbapenem derivatives and a preparation method thereof” (Korea Institute of Science and Technology, priority 1997, dated 2002)", "key": {"[1]": {"system": "Staphylococcus aureus 503", "assay": "Antibacterial activity test (agar dilution MIC)", "format": "cell-based", "settings": "Staphylococcus aureus 503, agar", "experimental": "(§1) Gram-positive Streptococcus and Staphylococcus and Gram-negative Escherichia coli, Pseudomonas, Salmonella, Klebsiella and Enterobacter were selected for the test. After the cells were diluted and cultured in agar, the compounds of the present invention were treated to obtain the minimum inhibitory concentration in the units of μg/ml."}, "Enterobacter cloacae P99": {"system": "Enterobacter cloacae P99", "assay": "Antibacterial activity test (agar dilution MIC)", "format": "cell-based", "experimental": "as §1"}, "Escherichia coli 1507E": {"system": "Escherichia coli 1507E", "assay": "Antibacterial activity test (agar dilution MIC)", "format": "cell-based", "experimental": "as §1"}, "Escherichia coli TEM": {"system": "Escherichia coli TEM", "assay": "Antibacterial activity test (agar dilution MIC)", "format": "cell-based", "settings": "for Minimum inhibitory concentration: Escherichia coli TEM, agar", "experimental": "as §1"}, "[2]": {"system": "Streptococcus pyogenes 77A", "assay": "Antibacterial activity test (agar dilution MIC)", "format": "cell-based", "experimental": "as §1"}, "Salmonella typhimurium": {"system": "Salmonella typhimurium", "assay": "Antibacterial activity test (agar dilution MIC)", "format": "cell-based", "experimental": "as §1"}, "[3]": {"system": "Pseudomonas aeruginosa 1592E", "assay": "Antibacterial activity test (agar dilution MIC)", "format": "cell-based", "experimental": "as §1"}, "[4]": {"system": "Streptococcus faecium MD8b", "assay": "Antibacterial activity test (agar dilution MIC)", "format": "cell-based", "experimental": "as §1"}, "[5]": {"system": "Pseudomonas aeruginosa 1771", "assay": "Antibacterial activity test (agar dilution MIC)", "format": "cell-based", "settings": "Pseudomonas aeruginosa 1771, agar", "experimental": "as §1"}, "[6]": {"system": "Streptococcus pyogenes 308A", "assay": "Antibacterial activity test (agar dilution MIC)", "format": "cell-based", "experimental": "as §1"}, "[7]": {"system": "Enterobacter cloacae 1321E", "assay": "Antibacterial activity test (agar dilution MIC)", "format": "cell-based", "experimental": "as §1"}, "Escherichia coli DC2": {"system": "Escherichia coli DC2", "assay": "Antibacterial activity test (agar dilution MIC)", "format": "cell-based", "experimental": "as §1"}, "[8]": {"system": "Pseudomonas aeruginosa 9027", "assay": "Antibacterial activity test (agar dilution MIC)", "format": "cell-based", "settings": "Pseudomonas aeruginosa 9027, agar", "experimental": "as §1"}, "Klebsiella oxytoca 1082E": {"system": "Klebsiella oxytoca 1082E", "assay": "Antibacterial activity test (agar dilution MIC)", "format": "cell-based", "experimental": "as §1"}, "[9]": {"system": "Staphylococcus aureus SG511", "assay": "Antibacterial activity test (agar dilution MIC)", "format": "cell-based", "experimental": "as §1"}, "[10]": {"system": "Pseudomonas aeruginosa 1771M", "assay": "Antibacterial activity test (agar dilution MIC)", "format": "cell-based", "experimental": "as §1"}, "Escherichia coli DC0": {"system": "Escherichia coli DC0", "assay": "Antibacterial activity test (agar dilution MIC)", "format": "cell-based", "experimental": "as §1"}, "Escherichia coli 078 [11]": {"system": "Escherichia coli 078", "assay": "Antibacterial activity test (agar dilution MIC)", "format": "cell-based", "settings": "Escherichia coli 078, agar", "experimental": "as §1"}, "[12]": {"system": "Staphylococcus aureus 285", "assay": "Antibacterial activity test (agar dilution MIC)", "format": "cell-based", "settings": "Staphylococcus aureus 285, agar", "experimental": "as §1"}, "[13]": {"system": "Klebsiella aerogenes 1522E", "assay": "Antibacterial activity test (agar dilution MIC)", "format": "cell-based", "experimental": "as §1"}, "[14]": {"target": "DHP-I (renal dehydropeptidase-I) (Homo sapiens, UniProt P16444)", "sequence (P16444 17-385)": "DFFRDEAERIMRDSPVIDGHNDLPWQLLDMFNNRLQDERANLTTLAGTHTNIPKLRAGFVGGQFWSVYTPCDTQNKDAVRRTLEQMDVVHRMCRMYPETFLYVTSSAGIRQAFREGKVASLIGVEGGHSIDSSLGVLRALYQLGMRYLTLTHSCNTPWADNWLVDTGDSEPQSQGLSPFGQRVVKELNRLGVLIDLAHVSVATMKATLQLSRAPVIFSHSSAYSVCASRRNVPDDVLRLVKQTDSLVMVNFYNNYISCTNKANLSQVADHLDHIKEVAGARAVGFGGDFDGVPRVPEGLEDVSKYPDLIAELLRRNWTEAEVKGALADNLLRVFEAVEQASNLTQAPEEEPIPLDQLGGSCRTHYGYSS", "assay": "in vitro", "settings": "renal enzyme DHP-I"}, "Escherichia coli 078 [15]": {"system": "Escherichia coli 078", "assay": "PD50 test using mice", "format": "in vivo", "parameters": "PD50: unit not given beside the values", "settings": "Escherichia coli 078", "from_the_text": "(§2) This means that ⅓ of the amount of the compound 10 has the same effect as meropenem.\n(§3) Streptococcus pyrogenes A 77 and Escherichia coli 078 were selected as gram-positive and gram-negative strains, respectively."}, "[16]": {"system": "Streptococcus pyrogenes A 77", "assay": "PD50 test using mice", "format": "in vivo", "parameters": "PD50: unit not given beside the values", "settings": "Streptococcus pyrogenes A 77", "from_the_text": "as §2, §3"}, "[17]": {"assay": "Bioavailability test, subcutaneous injection to mice", "format": "in vivo"}, "[18]": {"settings": "read-out: Minimum inhibitory concentration"}}, "data": [{"compound": "CNS(=O)(=O)CCNC(=O)[C@@H]1C[C@H](SC2=C(C(=O)O)N3C(=O)[C@H]([C@@H](C)O)[C@H]3[C@H]2C)CN1", "note": "[Compound 11]", "values": [{"measurement": "MIC", "setting": "[1]; [18]", "result": 0.098, "unit": "µg/mL"}, {"measurement": "MIC", "setting": "Enterobacter cloacae P99; [18]", "result": 0.049, "unit": "µg/mL"}, {"measurement": "MIC", "setting": "Escherichia coli 1507E; [18]", "result": 0.013, "unit": "µg/mL"}, {"measurement": "MIC", "setting": "Escherichia coli TEM; Escherichia coli, read-out: Minimum inhibitory concentration", "result": 0.013, "unit": "µg/mL"}, {"measurement": "MIC", "setting": "[2]; [18]", "result": 0.004, "unit": "µg/mL"}, {"measurement": "MIC", "setting": "Salmonella typhimurium; Salmonella enterica, read-out: Minimum inhibitory concentration", "result": 0.025, "unit": "µg/mL"}, {"measurement": "MIC", "setting": "[3]; [18]", "result": 0.195, "unit": "µg/mL"}, {"measurement": "MIC", "setting": "[4]; Enterococcus faecium, read-out: Minimum inhibitory concentration", "result": 6.25, "unit": "µg/mL"}, {"measurement": "MIC", "setting": "[5]; [18]", "result": 0.195, "unit": "µg/mL"}, {"measurement": "MIC", "setting": "[6]; [18]", "result": 0.013, "unit": "µg/mL"}, {"measurement": "MIC", "setting": "[7]; [18]", "result": 0.025, "unit": "µg/mL"}, {"measurement": "MIC", "setting": "Escherichia coli DC2; [18]", "result": 0.025, "unit": "µg/mL"}, {"measurement": "MIC", "setting": "[8]; [18]", "result": 0.391, "unit": "µg/mL"}, {"measurement": "MIC", "setting": "Klebsiella oxytoca 1082E; [18]", "result": 0.049, "unit": "µg/mL"}, {"measurement": "MIC", "setting": "[9]; [18]", "result": 0.098, "unit": "µg/mL"}, {"measurement": "MIC", "setting": "[10]; Pseudomonas aeruginosa, 1771M, read-out: Minimum inhibitory concentration", "result": 0.195, "unit": "µg/mL"}, {"measurement": "MIC", "setting": "Escherichia coli DC0; [18]", "result": 0.025, "unit": "µg/mL"}, {"measurement": "MIC", "setting": "Escherichia coli 078 [11]; [18]", "result": 0.025, "unit": "µg/mL"}, {"measurement": "MIC", "setting": "[12]; [18]", "result": 0.195, "unit": "µg/mL"}, {"measurement": "MIC", "setting": "[13]; [18]", "result": 0.049, "unit": "µg/mL"}]}, {"compound": "C[C@@H](O)[C@H]1C(=O)N2C(C(=O)O)=C(S[C@@H]3CN[C@H](C(=O)NCCS(=O)(=O)NCCO)C3)[C@H](C)[C@H]12", "note": "[Compound 13]", "values": [{"measurement": "Minimum inhibitory concentration", "setting": "[1]", "result": 0.098, "unit": "µg/mL"}, {"measurement": "Minimum inhibitory concentration", "setting": "Enterobacter cloacae P99", "result": 0.049, "unit": "µg/mL"}, {"measurement": "Minimum inhibitory concentration", "setting": "Escherichia coli 1507E", "result": 0.025, "unit": "µg/mL"}, {"measurement": "Minimum inhibitory concentration", "setting": "Escherichia coli TEM", "result": 0.013, "unit": "µg/mL"}, {"measurement": "Minimum inhibitory concentration", "setting": "[2]", "result": 0.007, "unit": "µg/mL"}, {"measurement": "Minimum inhibitory concentration", "setting": "Salmonella typhimurium", "result": 0.025, "unit": "µg/mL"}, {"measurement": "Minimum inhibitory concentration", "setting": "[3]", "result": 1.563, "unit": "µg/mL"}, {"measurement": "Minimum inhibitory concentration", "setting": "[4]", "result": 12.5, "unit": "µg/mL"}, {"measurement": "Minimum inhibitory concentration", "setting": "[5]", "result": 1.563, "unit": "µg/mL"}, {"measurement": "Minimum inhibitory concentration", "setting": "[6]", "result": 0.013, "unit": "µg/mL"}, {"measurement": "Minimum inhibitory concentration", "setting": "[7]", "result": 0.013, "unit": "µg/mL"}, {"measurement": "Minimum inhibitory concentration", "setting": "Escherichia coli DC2", "result": 0.025, "unit": "µg/mL"}, {"measurement": "Minimum inhibitory concentration", "setting": "[8]", "result": 1.563, "unit": "µg/mL"}, {"measurement": "Minimum inhibitory concentration", "setting": "Klebsiella oxytoca 1082E", "result": 0.049, "unit": "µg/mL"}, {"measurement": "Minimum inhibitory concentration", "setting": "[9]", "result": 0.195, "unit": "µg/mL"}, {"measurement": "Minimum inhibitory concentration", "setting": "[10]; Pseudomonas aeruginosa 1771M, agar", "result": 0.391, "unit": "µg/mL"}, {"measurement": "Minimum inhibitory concentration", "setting": "Escherichia coli DC0", "result": 0.025, "unit": "µg/mL"}, {"measurement": "Minimum inhibitory concentration", "setting": "Escherichia coli 078 [11]", "result": 0.013, "unit": "µg/mL"}, {"measurement": "Minimum inhibitory concentration", "setting": "[12]", "result": 0.195, "unit": "µg/mL"}, {"measurement": "Minimum inhibitory concentration", "setting": "[13]", "result": 0.025, "unit": "µg/mL"}]}, {"compound": "C[C@@H](O)[C@H]1C(=O)N2C(C(=O)O)=C(S[C@@H]3CN[C@H](C(=O)NCCS(=O)(=O)N4CCCC4)C3)[C@H](C)[C@H]12", "note": "[Compound 15]", "values": [{"measurement": "Minimum inhibitory concentration", "setting": "[1]", "result": 0.195, "unit": "µg/mL"}, {"measurement": "Minimum inhibitory concentration", "setting": "Enterobacter cloacae P99", "result": 0.049, "unit": "µg/mL"}, {"measurement": "Minimum inhibitory concentration", "setting": "Escherichia coli 1507E", "result": 0.025, "unit": "µg/mL"}, {"measurement": "Minimum inhibitory concentration", "setting": "Escherichia coli TEM", "result": 0.025, "unit": "µg/mL"}, {"measurement": "Minimum inhibitory concentration", "setting": "[2]", "result": 0.007, "unit": "µg/mL"}, {"measurement": "Minimum inhibitory concentration", "setting": "Salmonella typhimurium", "result": 0.049, "unit": "µg/mL"}, {"measurement": "Minimum inhibitory concentration", "setting": "[3]", "result": 0.391, "unit": "µg/mL"}, {"measurement": "Minimum inhibitory concentration", "setting": "[4]", "result": 12.5, "unit": "µg/mL"}, {"measurement": "Minimum inhibitory concentration", "setting": "[5]", "result": 0.781, "unit": "µg/mL"}, {"measurement": "Minimum inhibitory concentration", "setting": "[6]", "result": 0.013, "unit": "µg/mL"}, {"measurement": "Minimum inhibitory concentration", "setting": "[7]", "result": 0.025, "unit": "µg/mL"}, {"measurement": "Minimum inhibitory concentration", "setting": "Escherichia coli DC2", "result": 0.049, "unit": "µg/mL"}, {"measurement": "Minimum inhibitory concentration", "setting": "[8]", "result": 0.391, "unit": "µg/mL"}, {"measurement": "Minimum inhibitory concentration", "setting": "Klebsiella oxytoca 1082E", "result": 0.098, "unit": "µg/mL"}, {"measurement": "Minimum inhibitory concentration", "setting": "[9]", "result": 0.195, "unit": "µg/mL"}, {"measurement": "Minimum inhibitory concentration", "setting": "Escherichia coli DC0", "result": 0.025, "unit": "µg/mL"}, {"measurement": "Minimum inhibitory concentration", "setting": "Escherichia coli 078 [11]", "result": 0.025, "unit": "µg/mL"}, {"measurement": "Minimum inhibitory concentration", "setting": "[12]", "result": 0.195, "unit": "µg/mL"}, {"measurement": "Minimum inhibitory concentration", "setting": "[13]", "result": 0.049, "unit": "µg/mL"}]}, {"compound": "C[C@@H](O)[C@H]1C(=O)N2C(C(=O)O)=C(SCCN=CN)C[C@H]12", "note": "[imipenem, reference compound]", "values": [{"measurement": "half-life", "setting": "[14]", "result": 30, "unit": "min"}]}, {"compound": "C[C@@H](O)[C@H]1C(=O)N2C(C(=O)O)=C(S[C@@H]3CN[C@H](C(=O)N(C)C)C3)[C@H](C)[C@H]12", "note": "[meropenem, reference compound]", "values": [{"measurement": "PD50", "setting": "Escherichia coli 078 [15]", "result": 1.24}, {"measurement": "PD50", "setting": "[16]", "result": 7.16}, {"measurement": "Cmax", "setting": "[17]", "result": "7600 ± 550", "unit": "ng/mL"}, {"measurement": "T1/2", "setting": "[17]", "result": "14.4 ± 13.2", "unit": "min"}, {"measurement": "Tmax", "setting": "[17]", "result": "12.6 ± 2.4", "unit": "min"}, {"measurement": "AUC", "setting": "[17]; mouse, in vivo, sc, AUC 0-2 hr", "result": "3290 ± 290", "unit": "ng·h/mL"}]}]}
